The target of the series is T1, Aromatase (Homo sapiens, UniProt P11511).
T1 sequence (P11511 whole entry): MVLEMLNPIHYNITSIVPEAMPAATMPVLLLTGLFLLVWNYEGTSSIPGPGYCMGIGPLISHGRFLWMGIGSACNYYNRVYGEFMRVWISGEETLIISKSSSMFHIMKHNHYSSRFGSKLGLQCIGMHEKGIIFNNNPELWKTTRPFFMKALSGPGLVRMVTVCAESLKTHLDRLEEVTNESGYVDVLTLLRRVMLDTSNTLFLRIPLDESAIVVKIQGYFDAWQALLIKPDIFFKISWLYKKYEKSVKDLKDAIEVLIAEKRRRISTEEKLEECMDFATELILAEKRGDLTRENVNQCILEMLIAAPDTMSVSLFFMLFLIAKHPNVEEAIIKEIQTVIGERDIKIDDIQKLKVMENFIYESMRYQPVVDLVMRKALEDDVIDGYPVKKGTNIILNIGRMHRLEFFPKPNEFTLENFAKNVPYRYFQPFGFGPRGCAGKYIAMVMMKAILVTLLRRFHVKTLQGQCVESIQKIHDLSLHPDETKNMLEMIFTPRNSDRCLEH
As to the kind of experiment: Percentage aromatase activity remaining in human placental microsomes with NADPH. In kind it is functional, Placenta.

Molecules are shown by their SMILES.

`C[C@]12CC[C@H]3[C@@H](CCC4=CC(=O)CC[C@@]43CS)[C@@H]1CCC2=O`: the Activity is reported as 94%.
